Assay results: US4526888A, “Nephrotoxicity inhibitors for aminoglycoside antibiotics” (Bristol-Myers Company, priority 1983, dated 1985)
“And” between values parts separate entries of the source, which are not always exact repeats. Identical values can stand only once. Like-named read-outs stand apart in the source and are kept apart here.

Tests used:
[1] = tested on: rats; settings: rat, in vivo
Description: (§1) A fourteen (14) day subacute nephrotoxicity model in rats was utilized to test the in vivo efficacy of aminoglycoside-transport inhibitor combinations. […] Though blood urea nitrogen (BUN) was monitored as a clinical parameter of renal function, the primary evaluation of nephrotoxicity in this model involves histopathologic examination of renal tissue, which is a more accurate and sensitive method for assessing nephrotoxicity [Hottendorf et al., Antimicrob.
(§2) Male Sprague-Dawley rats [Charles River Breeding Laboratories, Inc., (CRL: COBS CD (SD) BR)] approximately 6 weeks old and weighing 140-160 gms upon arrival were used. They were conditioned for at least 5 days prior to the start of the study. Only animals found to be clinically healthy were selected. Rats were identified individually by number on the tail with black marking pens. During the study the rats were housed individually in cages of the appropriate size and type in a temperature-controlled room. Rodent Laboratory Chow (pellet, Purina Ralston Company) and water was offered ad libitum.
(§3) The aminoglycoside and aminoglycoside-inhibitor mixtures were administered subcutaneously twice daily for 14 days.
(§4) All rats were euthanized by an overdose of sodium pentobarbital on study Day 15.
(§5) The kidneys were removed and examined grossly. A longitudinal section of the left kidney and a cross section of the right kidney from each rat were preserved in 10% neutral buffered Formalin for histopathological evaluation. Tissue sections (6 μm each) were stained with hematoxylin and eosin, and the resulting tissue slides were randomized, masked, and examined by a single pathologist without knowledge of the animal's treatment.
(§6) Lesions encountered in the renal cortex included tubular vacuolar or granular degeneration, peritubular inflammation, tubular necrosis, tubular dilatation, tubular basophilia, and interstitial fibrosis. The extent and distribution of each of these lesions in both kidneys of every rat were scored as follows: 0, absence of lesion; 1, lesion represented in fewer than 10% of the nephrons; 2, lesion represented in 10 to 50% of the nephrons; 3, lesion represented in 50 to 90% of the nephrons; and 4, lesion represented in more than 90% of the nephrons. Since these lesions are all interrelated and represent various stages of proximal tubular damage, the lesion scores were summed to produce a single nephrotoxicity response for each animal, with a possible severity range of 0 to 24.
(§7) Nephrotoxicity was monitored by blood urea nitrogen (BUN) analysis and histopathologic examination of renal tissue.
(§8) Aminoglycosides and aminoglycoside-inhibitor mixtures were administered subcutaneously twice daily for fourteen days.
(§9) All rats were euthanized by an overdose of sodium pentobarbital on study Day 15. The kidneys were removed, examined grossly and placed in 10% neutral buffered formalin for subsequent histopathologic evaluation.

[2] = tested on: rats; assay: Fourteen day subacute nephrotoxicity model in rats, histopathologic examination of renal tissue; settings: for in vivo nephroprotective activity (in words): summary of Table III
Description: as §1, §2, §3, §4, §5, §6, §7, §8, §9

[3] = tested on: renal brush border membranes of proximal tubule cells; assay: In vitro gentamicin transport inhibition, isolated renal brush border membrane vesicles; format: biochemical; settings: 3H-gentamicin transport, rat renal brush border membrane vesicles, 30 second incubation; multiple of aminoglycoside molar concentration
Description: An in vitro screening program was established to study the selective inhibition of aminoglycoside transport across renal brush border membranes of proximal tubule cells. The screening tests employed isolated, purified brush border membrane as described by Kinsella et al., Biochem. Biophys. Acta., 552: 468-477 (1979) and Williams et al., Tox. Applied Pharmacol., 61: 243-251 (1981), comprising isolation and purification of rat renal cortical membranes via differential centrifugation, cationic precipitation and discontinuous sucrose gradient techniques. […] The transport was quantified by liquid scintillation techniques as described by Kinsella et al., J. Pharmacol. Exp. Ther., 209: 443-450 (1979). Gentamicin transport was characterized, FIG. 1, as to time and concentration dependency, and as to specificity. Gentamicin transport was then measured at a fixed concentration of gentamicin (0.5 mM) in the presence of prospective inhibitors at 5X molar concentration. […] The reaction media was then vacuum filtered on 0.3 micron Millipore filters. The filters were washed twice with 2 ml of the buffer and removed and counted using liquid scintillation spectroscopy techniques. […] The inhibitors were solubilized in the above-described buffer.

[4] = multiple of AG dose: Molar 0.1 (Mg 0.7 Lysine20, 2 Asparagine90)
[5] = multiple of AG dose: Molar 0.3 (Mg 15 Lysine10, 10 Aspartic acid90, 6 Asparagine90)
[6] = multiple of AG dose: Molar 1 (Mg 15 Glutamic acid60, 20 Asparagine90)

Compound: NCC[C@H](O)C(=O)N[C@@H]1C[C@H](N)[C@@H](O[C@H]2O[C@H](CN)[C@@H](O)[C@H](O)[C@H]2O)[C@H](O)[C@H]1O[C@H]1O[C@H](CO)[C@@H](O)[C@H](N)[C@H]1O.O=S(=O)(O)O.O=S(=O)(O)O [AMIKACIN, amikacin sulfate]
- nephrotoxicity in this test (conclusion in words) [1]: demonstrates the nephrotoxicity of amikacin

Compound: O=S(=O)([O-])CO.[Na+] [Sodium formaldehyde bisulfite]
- Nephroprotective Activity ([2]; multiple of AG dose: Molar 136, Mg 40): + (less than 50% reduction)
- I50 (molar multiples producing 50% transport inhibition) [3]: 10 X

Compound: NCCCNCCCCNCCCN [Spermine]
- I50 (molar multiples producing 50% transport inhibition) [3]: 3 X

Compound: Poly-l-asparagine90
- Nephroprotective Activity [2, 4]: + (less than 50% reduction)
- Nephroprotective Activity ([2]; multiple of AG dose: Molar 0.15, Mg 3): + (less than 50% reduction)
- Nephroprotective Activity [2, 5]: + (less than 50% reduction)
- Nephroprotective Activity ([2]; multiple of AG dose: Molar 0.5, Mg 10): +++ (reduction 100%)
- Nephroprotective Activity [2, 6]: +++ (reduction 100%)
- in vivo nephroprotective activity (in words) [2]: greatest degree of in vivo nephroprotective activity
- I50 (molar multiples producing 50% transport inhibition) [3]: 0.1 X

Compound: Poly-l-aspartic Acid90
- Nephroprotective Activity [2, 5]: +++ (reduction 100%)
- in vivo nephroprotective activity (in words) [2]: greatest degree of in vivo nephroprotective activity
- I50 (molar multiples producing 50% transport inhibition) [3]: < 0.1 X

Compound: Poly-l-glutamic Acid60
- Nephroprotective Activity [2, 6]: 0
- I50 (molar multiples producing 50% transport inhibition) [3]: < 0.1 X

Compound: Poly-l-lysine10
- Nephroprotective Activity [2, 5]: 0
- I50 (molar multiples producing 50% transport inhibition) [3]: 1 X

Compound: Tetralysine [Lysine4]
- Nephroprotective Activity ([2]; multiple of AG dose: Molar 16, Mg 25): 0
- I50 (molar multiples producing 50% transport inhibition) [3]: 10 X

Compound: gentamicin sulfate [GENTM]
- Histopath. Score (TOTAL), group value below animal scores ([2]; Example II Group II, gentamicin 10 mg/kg sc twice daily 14 days): 4.2
- Histopath. Score (TOTAL), individual animal ([2]; Example II Group II, gentamicin 10 mg/kg sc twice daily 14 days, Day 15, range 0 to 24): 1 and 5 and 6 and 4
- Histopath. Score (TOTAL), group value below animal scores ([2]; Example II Group III, gentamicin 20 mg/kg): 4.8
- Histopath. Score (TOTAL), individual animal ([2]; Example II Group III, gentamicin 20 mg/kg sc twice daily 14 days): 4 and 3 and 5 and 8
- Histopath. Score (TOTAL), group value below rat scores ([2]; Example III Group II, gentamicin 20 mg/kg): 8.8
- Histopath. Score (TOTAL), individual rat ([2]; Example III Group II, gentamicin 20 mg/kg sc twice daily fourteen days): 8 and 9 and 10
- nephrotoxicity in this test (conclusion in words) ([2]; aminoglycoside alone groups): demonstrates the nephrotoxicity of gentamicin
- dose necessary to elicit a significant and reproducible nephrotoxic response ([2]; bid, 14 days, rats): 20 mg/kg/day

Compound: polylysine20
- Nephroprotective Activity [2, 4]: + (less than 50% reduction)
- in vivo nephroprotective activity (in words) [2]: showed any nephroprotective activity
- I50 (molar multiples producing 50% transport inhibition) [3]: 0.05 X
